In US20130012432A1, “Peptides for Treatment of Obesity” (Novo Nordisk A/S, priority 2010, published 2013):
Converted amounts (≈) assume the structure as drawn. Positions of bridges follow the written chain, without caps; N, C: chain ends. Non-standard residues stand in square brackets, D forms with d. Residues, ends and D or L forms follow the SMILES beside them. Groups on a side chain read outwards from the residue. *: point of attachment. Palmitoyl(16-(5-tetrazolyl)) = O=C(CCCCCCCCCCCCCCCc1nnn[nH]1)*; Lys(CH2CO2H)2 = N[C@@H](CCCCN(CC(=O)O)CC(=O)O)C(=O)O; C18 diacid = O=C(O)CCCCCCCCCCCCCCCCC(=O)*; C16 diacid = O=C(O)CCCCCCCCCCCCCCC(=O)*; Hyp = O=C(O)[C@@H]1C[C@@H](O)CN1; NTA = O=C(O)CN(CC(=O)O)CC(=O)*; hCys = N[C@@H](CCS)C(=O)O; Orn = NCCC[C@H](N)C(=O)O; Dap = NC[C@H](N)C(=O)O; AEEA = NCCOCCOCC(=O)O

How the values were obtained:
human MC4 receptor = human MC4 receptor (Homo sapiens, UniProt P32245); assay: biochemical
Sequence of human MC4 receptor (P32245 whole entry): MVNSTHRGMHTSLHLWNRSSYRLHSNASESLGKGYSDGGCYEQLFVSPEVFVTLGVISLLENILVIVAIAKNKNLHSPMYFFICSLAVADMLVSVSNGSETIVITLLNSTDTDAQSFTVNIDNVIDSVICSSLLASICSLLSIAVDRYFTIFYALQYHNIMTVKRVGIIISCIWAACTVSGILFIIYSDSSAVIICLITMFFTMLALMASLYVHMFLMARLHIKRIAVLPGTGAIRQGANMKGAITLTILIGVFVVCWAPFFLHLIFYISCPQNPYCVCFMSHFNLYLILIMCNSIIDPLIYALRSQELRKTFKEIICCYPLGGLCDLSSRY
Description: Assay (V)—Melanocortin Receptor 4 (MC4) Binding Assay
In Vitro ^125NDP-α-MSH Binding to Recombinant BHK Cells Expressing Human MC4 Receptor (Filtration Assay).
The assay was performed in 5 ml minisorb vials (Sarstedt No. 55.526) or in 96-well filter-plates (Millipore MADVN 6550), and using BHK cells expressing the human MC4 receptor using BHK cells stably expressing the human MC4 receptor. The membranes were prepared from frozen or fresh cells that were homogenized in 20 mM HEPES pH 7.1, 5 mM MgCl2 and 1 mg/ml bacitracin and centrifuged at 15000 rpm at 4° C., 10 min in a Sorvall RC 5B plus, SS-34 rotor. The supernatant was discarded, and the pellets were re-suspended in buffer, homogenized and centrifuged two more times. The final pellets were resuspended in the buffer mentioned above, and the protein concentration was measured and adjusted with buffer to 14 to 17 mg/ml and the membrane preparation were kept at −80° C. until assay. The assay was run directly on a dilution of this cell membrane suspension, without any further preparation. The BHK cell membranes are kept at −80° C. until assay, and the assay is run directly on a dilution of this cell membrane suspension, without further preparation. The suspension is diluted to give maximally 10% specific binding, i.e. to approx. 50-100 fold dilution. The assay was performed in a total volume of 200 μl: 50 μl of cell suspension, 50 μl of ^125NDP-α-MSH (≈79 pM in final concentration), 50 μl of test compound and 50 μl binding buffer (pH 7) mixed and incubated for 2 h at 25° C. [binding buffer: 25 mM HEPES, pH 7.0, 1 mM CaCl2, 1 mM MgSO4, 1 mM EGTA, 0.02% Bacitracin, 0.005% Tween™ 20 and 0.1% HSA or, alternatively, 0.1% ovalbumin (Sigma; catalogue No. A-5503)]. Test compounds were dissolved in DMSO and diluted in binding buffer. Radiolabelled ligand and membranes were diluted in binding buffer. The incubation was stopped by dilution with 2×100 μl ice-cold 0.9% NaCl. The radioactivity retained on the filters was counted using a Cobra II auto gamma counter.
The data were analysed by non-linear regression analysis of binding curves, using the Windows™ program GraphPad™ Prism (GraphPad Software, USA).

physchem = assay: physchem
Description: From a stock solution in vehicle, either H2O or 10 mM phosphate, containing 1 mg (as weighed) compound per ml, 8-11 aliquots are withdrawn and pH-adjusted individually with HCl/NaOH, to cover the whole pH range.

MC1 receptor = MC1 receptor (Homo sapiens, UniProt Q01726); assay: biochemical
Sequence of MC1 receptor (Q01726 whole entry): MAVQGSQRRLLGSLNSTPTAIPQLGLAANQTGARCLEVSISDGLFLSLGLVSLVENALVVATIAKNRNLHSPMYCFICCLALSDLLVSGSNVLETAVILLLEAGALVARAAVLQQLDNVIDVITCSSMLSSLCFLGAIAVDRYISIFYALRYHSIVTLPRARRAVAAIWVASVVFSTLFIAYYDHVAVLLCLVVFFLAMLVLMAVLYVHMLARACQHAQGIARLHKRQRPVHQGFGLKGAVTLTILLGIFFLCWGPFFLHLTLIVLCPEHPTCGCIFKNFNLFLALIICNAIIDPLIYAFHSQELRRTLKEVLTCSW
Summary of the method: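 Compounds competed against 125I-NDP-α-MSH (22 pM final) for binding to stably MC1-expressing BHK cell membranes, 30 °C for 90 min in HEPES pH 7.4 buffer with 0.1% HSA or ovalbumin. Bound ligand collected by filtration and counted; binding curves analysed by non-linear regression.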

[1] = pH 6.4, Solubility Conc., pH 6.4, vehicle 10 mM phosphate
[2] = pH 6.7, Solubility Conc., pH 6.7, vehicle 10 mM phosphate
[3] = pH 7, Solubility Conc., pH 7.0, vehicle 10 mM phosphate
[4] = pH 7.2, Solubility Conc., pH 7.2, vehicle 10 mM phosphate
[5] = pH 7.8, Solubility Conc., pH 7.8, vehicle 10 mM phosphate

Structure (SMILES) | Ki (human MC4 receptor) | solubility (physchem; [1]) | solubility (physchem; [2]) | solubility (physchem; [3]) | solubility (physchem; [4]) | solubility (physchem; [5]) | solubility (physchem; pH 5.5, Solubility Conc.) | solubility (physchem; pH 6.3, Solubility Conc.) | solubility (physchem; pH 7.3, Solubility Conc.) | solubility (physchem; pH 7.8, Solubility Conc.) | solubility (physchem; pH 8, Solubility Conc.) | solubility (physchem; pH 3.4, Solubility Conc.) | Ki (MC1 receptor) | further results
CC(=O)N[C@H]1CCCNC(=O)C[C@@H](C(=O)N2CCC[C@H]2C(=O)N[C@@H](CO)C(=O)N[C@@H](CO)C(=O)N[C@@H](CO)C(=O)N[C@@H](CCCCN(CC(=O)O)CC(=O)O)C(=O)N[C@@H](CO)C(=O)N[C@@H](CO)C(=O)N[C@@H](CCCCNC(=O)COCCOCCNC(=O)CCCCCCCCCCCCCCCCC(=O)O)C(N)=O)NC(=O)[C@H](Cc2c[nH]c3ccccc23)NC(=O)[C@H](CCCNC(=N)N)NC(=O)[C@@H](Cc2ccccc2)NC(=O)[C@H](Cc2c[nH]cn2)NC1=O [Example 14, Ac-c[Orn-His-D-Phe-Arg-Trp-Asp]-Pro-Ser-Ser-Ser-Lys(biscarboxymethyl)-Ser-Ser-Lys({2-[2-(17-carboxyheptadecanoylamino)ethoxy]ethoxy}acetyl)-NH2] (Ac-[Orn]H[dF]RWDPSSS[Lys(CH2CO2H)2]SSK([AEEA-C18 diacid])-NH2; lactam 1-6) | 0.8 nM | 61 µM (≈ 137 µg/mL) | 148 µM (≈ 332 µg/mL) | 485 µM (≈ 1090 µg/mL) | 507 µM (≈ 1140 µg/mL) | 506 µM (≈ 1140 µg/mL) | – | – | – | – | – | – | – | solubility (physchem; pH 6.9, Solubility Conc., pH 6.9, vehicle 10 mM phosphate): 403 µM (≈ 904 µg/mL); solubility (physchem; pH 7.3, Solubility Conc., pH 7.3, vehicle 10 mM phosphate): 535 µM (≈ 1200 µg/mL); solubility (physchem; pH 7.4, Solubility Conc., pH 7.4, vehicle 10 mM phosphate): 513 µM (≈ 1150 µg/mL); solubility (physchem; pH 8, Solubility Conc., pH 8.0, vehicle 10 mM phosphate): 517 µM (≈ 1160 µg/mL)
CC(=O)N[C@H]1CC(=O)NC[C@@H](C(=O)N2CCC[C@H]2C(=O)N2CCC[C@H]2C(=O)N[C@@H](CCCNC(=N)N)C(=O)N[C@@H](CC(=O)O)C(=O)N[C@@H](CCCCNC(=O)CN(CC(=O)O)CC(=O)O)C(=O)N[C@@H](CCCCNC(=O)COCCOCCNC(=O)CCCCCCCCCCCCCCCc2nnn[nH]2)C(N)=O)NC(=O)[C@H](Cc2c[nH]c3ccccc23)NC(=O)[C@H](CCCNC(=N)N)NC(=O)[C@@H](Cc2ccccc2)NC(=O)[C@H](Cc2c[nH]cn2)NC1=O [Example 24, Ac-c[Asp-His-D-Phe-Arg-Trp-Dap]-Pro-Pro-Arg-Asp-Lys(BCMA)-Lys[(2-{2-[16-(tetrazol-5-yl)hexadecanoylamino]ethoxy}ethoxy)acetyl]-NH2] (Ac-DH[dF]RW[Dap]PPRDK(NTA)K([AEEA-Palmitoyl(16-(5-tetrazolyl))])-NH2; lactam 1-6) | 107 nM | – | – | – | – | – | – | – | – | – | – | – | – | –
CC(=O)N[C@H]1CCCNC(=O)C[C@@H](C(=O)N2CCC[C@H]2C(=O)N[C@@H](CO)C(=O)N[C@@H](CO)C(=O)N[C@@H](CO)C(=O)N[C@@H](CCCCN(CC(=O)O)CC(=O)O)C(=O)N[C@@H](CO)C(=O)N[C@@H](CO)C(=O)N[C@@H](CCCCNC(=O)COCCOCCNC(=O)CCCCCCCCCCCCCCCc2nnn[nH]2)C(N)=O)NC(=O)[C@H](Cc2c[nH]c3ccccc23)NC(=O)[C@H](CCCNC(=N)N)NC(=O)[C@@H](Cc2ccccc2)NC(=O)[C@H](Cc2c[nH]cn2)NC1=O [Example 28, Ac-c[Orn-His-D-Phe-Arg-Trp-Asp]-Pro-Ser-Ser-Ser-Lys(biscarboxymethyl)-Ser-Ser-Lys[(2-{2-[16-(tetrazol-5-yl)hexadecanoylamino]ethoxy}ethoxy)acetyl]-NH2] (Ac-[Orn]H[dF]RWDPSSS[Lys(CH2CO2H)2]SSK([AEEA-Palmitoyl(16-(5-tetrazolyl))])-NH2; lactam 1-6) | 0.9 nM | 59 µM (≈ 133 µg/mL) | 126 µM (≈ 284 µg/mL) | 382 µM (≈ 861 µg/mL) | 406 µM (≈ 915 µg/mL) | 433 µM (≈ 976 µg/mL) | – | – | – | – | – | – | – | solubility (physchem; pH 4.8, Solubility Conc., pH 4.8, vehicle 10 mM phosphate): 71 µM (≈ 160 µg/mL); solubility (physchem; pH 5.6, Solubility Conc., pH 5.6, vehicle 10 mM phosphate): 40 µM (≈ 90.1 µg/mL); solubility (physchem; pH 7.5, Solubility Conc., pH 7.5, vehicle 10 mM phosphate): 410 µM (≈ 924 µg/mL); solubility (physchem; pH 8.1, Solubility Conc., pH 8.1, vehicle 10 mM phosphate): 415 µM (≈ 935 µg/mL)
CC(=O)N[C@H]1CCCNC(=O)C[C@@H](C(=O)N2CCC[C@H]2C(=O)N2CCC[C@H]2C(=O)N[C@@H](CCCNC(=N)N)C(=O)N[C@@H](CCC(=O)O)C(=O)N[C@@H](CCCCN(CC(=O)O)CC(=O)O)C(=O)N[C@@H](CCCCNC(=O)COCCOCCNC(=O)CCCCCCCCCCCCCCCCC(=O)O)C(N)=O)NC(=O)[C@H](Cc2c[nH]c3ccccc23)NC(=O)[C@H](CCCNC(=N)N)NC(=O)[C@@H](Cc2ccccc2)NC(=O)[C@H](Cc2c[nH]cn2)NC1=O [Example 34, Ac-c[Orn-His-D-Phe-Arg-Trp-Asp]-Pro-Pro-Arg-Glu-Lys(biscarboxymethyl)-Lys({2-[2-(17-carboxyheptadecanoylamino)ethoxy]ethoxy}acetyl)-NH2] (Ac-[Orn]H[dF]RWDPPRE[Lys(CH2CO2H)2]K([AEEA-C18 diacid])-NH2; lactam 1-6) | 0.8 nM | – | – | – | – | – | 27 µM (≈ 59.1 µg/mL) | 42 µM (≈ 92 µg/mL) | 261 µM (≈ 572 µg/mL) | 420 µM (≈ 920 µg/mL) | 360 µM (≈ 789 µg/mL) | – | – | solubility (physchem; pH 6.6, Solubility Conc.): 62 µM (≈ 136 µg/mL); solubility (physchem; pH 6.9, Solubility Conc.): 87 µM (≈ 191 µg/mL); solubility (physchem; pH 7.2, Solubility Conc.): 165 µM (≈ 361 µg/mL); solubility (physchem; pH 7.4, Solubility Conc.): 355 µM (≈ 778 µg/mL)
CC(=O)N[C@H]1CCSSC[C@@H](C(=O)N2CCC[C@H]2C(=O)N2CCC[C@H]2C(=O)N[C@@H](CCCCN)C(=O)N[C@@H](CC(=O)O)C(=O)N[C@@H](CNC(=O)CN(CC(=O)O)CC(=O)O)C(=O)N[C@@H](CCCCNC(=O)COCCOCCNC(=O)CCCCCCCCCCCCCCCc2nnn[nH]2)C(N)=O)NC(=O)[C@H](Cc2c[nH]c3ccccc23)NC(=O)[C@H](CCCNC(=N)N)NC(=O)[C@@H](Cc2ccccc2)NC(=O)[C@@H]2C[C@@H](O)CN2C1=O [Example 67, Ac-c[homoCys-Hyp-D-Phe-Arg-Trp-Cys]-Pro-Pro-Lys-Asp-Dap(BCMA)-Lys[(2-{2-[16-(tetrazol-5-yl)hexadecanoylamino]ethoxy}ethoxy)acetyl]-NH2] (Ac-[hCys][Hyp][dF]RWCPPKD[Dap](NTA)K([AEEA-Palmitoyl(16-(5-tetrazolyl))])-NH2; disulfide 1-6) | – | – | – | – | – | – | – | 482 µM (≈ 1040 µg/mL) | 590 µM (≈ 1270 µg/mL) | – | – | 420 µM (≈ 906 µg/mL) | > 10000 nM | solubility (physchem; pH 3.3, Solubility Conc.): 600 µM (≈ 1290 µg/mL); solubility (physchem; pH 3.6, Solubility Conc.): 250 µM (≈ 539 µg/mL); solubility (physchem; pH 4.1, Solubility Conc.): 37 µM (≈ 79.8 µg/mL); solubility (physchem; pH 5.4, Solubility Conc.): 38 µM (≈ 81.9 µg/mL); solubility (physchem; pH 5.9, Solubility Conc.): 207 µM (≈ 446 µg/mL); solubility (physchem; pH 6.4, Solubility Conc.): 533 µM (≈ 1150 µg/mL); solubility (physchem; pH 6.8, Solubility Conc.): 587 µM (≈ 1270 µg/mL)
CC(=O)N[C@H]1CCSSC[C@@H](C(=O)N2CCC[C@H]2C(=O)N2CCC[C@H]2C(=O)N[C@@H](CO)C(=O)N[C@@H](CCC(=O)O)C(=O)N[C@@H](CCCCN(CC(=O)O)CC(=O)O)C(=O)N[C@@H](CCCCNC(=O)COCCOCCNC(=O)CCCCCCCCCCCCCCC(=O)O)C(N)=O)NC(=O)[C@H](Cc2c[nH]c3ccccc23)NC(=O)[C@H](CCCNC(=N)N)NC(=O)[C@@H](Cc2ccccc2)NC(=O)[C@H](Cc2c[nH]cn2)NC1=O [Example 70, Ac-c[homoCys-His-D-Phe-Arg-Trp-Cys]-Pro-Pro-Ser-Glu-Lys(biscarboxymethyl)-Lys({2-[2-(15-carboxypentadecanoylamino)ethoxy]ethoxy}acetyl)-NH2] (Ac-[hCys]H[dF]RWCPPSE[Lys(CH2CO2H)2]K([AEEA-C16 diacid])-NH2; disulfide 1-6) | – | – | – | – | – | – | 59 µM (≈ 124 µg/mL) | – | – | 463 µM (≈ 973 µg/mL) | 440 µM (≈ 924 µg/mL) | 190 µM (≈ 399 µg/mL) | > 10000 nM | solubility (physchem; pH 3.9, Solubility Conc.): 65 µM (≈ 137 µg/mL); solubility (physchem; pH 4.4, Solubility Conc.): 40 µM (≈ 84 µg/mL); solubility (physchem; pH 5.6, Solubility Conc.): 142 µM (≈ 298 µg/mL); solubility (physchem; pH 5.8, Solubility Conc.): 210 µM (≈ 441 µg/mL); solubility (physchem; pH 6.1, Solubility Conc.): 429 µM (≈ 901 µg/mL); solubility (physchem; pH 7.5, Solubility Conc.): 444 µM (≈ 933 µg/mL)
